# Laboratory results as given in patent US20250288645A1, “USE OF GsMTx4 AND GsMTx4 CONJUGATES TO IMPROVE RECOVERY FROM JOINT INJURY” (priority 2023, published 2025).
# “Also recorded” adds a separate entry of the source. No end group written: not given here.
# Experiments:
# C57BL/6 mice = assay: Bilateral ACL-injury mouse model: knee histology, OARSI score; assay type: in vivo
# From the text: (§1) Some of the studies reported below involved a murine model of animals which were subjected to trauma by injuring an ACL (as an exemplar of injury to any of the four knee ligaments). Without wishing to be bound by theory, it is believed that injury to the ACL changes the mechanical loading on the joint, promoting imbalanced metabolism in articular cartilage, and promoting the development of post-traumatic OA, or “PTOA.” Animals were divided into four cohorts: the first group, the controls, were not subjected to trauma, the second group underwent bilateral ACL injury, but no further treatment, the third group underwent bilateral ACL injury, and was then administered saline solution at days 3, 10 and 17 post-injury, and the fourth group underwent bilateral ACL injury, and was then administered GsMTx4 peptide at days 3, 10 and 17 post-injury. The animals were evaluated by gait analysis, a cell vulnerability assay, and a histological evaluation/immunofluorescence assay. In one aspect, the assays compared the expression of Piezo1 and Piezo2 in chondrocytes from injured joints, from uninjured controls, and from injured joints injured and then treated with GsMTx4 and from joints that were injured and then treated only with saline solution. The study also looked at calcitonin gene-related peptide (“CGRP”)-containing (“CGRP^+”) nerve endings. CGRP^+ nerves have been identified as principal coordinators of thermal and mechanical sensitivity in various pain models. See, e.g., Powell, et al., Nat Commun 12, 5812 (2021); doi.org/10.1038/s41467-021-26100-6.
# Experiments were performed in a non-invasive ACL-injury mouse model. […] Both male and female mice were used in the four groups and results were tracked by gender as well as by group.
# Animals in the ACL-injury groups were provided with buprenorphine as an analgesic, placed under anesthesia by isoflurane inhalation, and had the injuries induced with a custom-built strain gauge-instrumented device by applying axial force along the femoral shaft until a force drop was felt and a distinct “pop” sound was heard. […]
# CGRP^+ pain nerves = assay: Bilateral ACL-injury mouse model: knee nerve innervation and CGRP+ pain nerves; assay type: in vivo
# From the text: as §1
# mice = assay: Gait analysis after bilateral ACL injury; assay type: in vivo, mouse; settings: weekly subcutaneous injections, after 3 weeks
# Method: This Example discusses studies in which mice were first divided into three groups: Group 1, control animals, were not injured, but were injected with GsMTx4, Group 2 mice were given a bilateral ACL injury in their hind legs, and then given weekly subcutaneous injections of saline, and (3) Group 3 mice were given a bilateral ACL injury in their hind legs, and then given weekly subcutaneous injections of GsMTx4.
# After 3 weeks, the gait of the animals in each group was studied for the following metrics: hind paw stride length, hind paw average speed, hind paw swing speed, and step cycle.
# C57Bl/6 male mice = assay: Massive rotator cuff tear (RCT) mouse model: humeral head cartilage histology; assay type: in vivo
# Method: A massive rotator cuff tear (RCT) model was performed by surgical ligation of the supraspinatus and infraspinatus tendons of the right shoulder of 14-week-old C57Bl/6 male and female mice through a deltoid splitting approach. Mice were anesthetized with 2% isoflurane gas mixed with oxygen. A single dose of buprenorphine SR (0.5 mg/kg) was injected subcutaneously at the nape. The right shoulder was prepped using a chemical hair removal agent, followed by betadine solution for 2 minutes and a rinse with 70% ethanol. The remaining steps were performed under sterile technique. A #11 scalpel blade was used to sharply incise the skin and subcutaneous tissues in a longitudinal incision over the palpable border of the lateral shoulder. The deltoid fascia and muscle were sharply incised in line with the skin incision with care not to dissect distally along the humerus to protect the axillary nerve. A pair of forceps were then used to grasp the proximal humerus and pull laterally to place the glenohumeral joint on gentle tension. A 25G needle was passed under the supraspinatus and infraspinatus tendons. […] Animals were monitored daily for 3 days post-operatively, and no adverse events were noted. […]
# Humeri were harvested and chondrocyte mechano-vulnerability was quantified before and after 2 mJ impact according to methods above. […]
# [1] = ACL-I mice, GsMTx4 post-injury, versus saline-treated ACL-I mice
substance,measurement,setting,value
GsMTx4 (GCLEFWWKCNPNDDKCCRPKLKCSKLFKLCNFSF-NH2; ends and bridges not checked; listed as Grammostola spatulata),OA severity (OARSI score),"C57BL/6 mice; ACL-I mice, GsMTx4 at days 3, 10, 17 post-injury, 3 weeks post-ACL-I, versus saline-treated ACL-I mice",reduced OARSI score; also recorded: decreased OA degrees significantly
same,combined OARSI score for the femur and the tibia (FIG. 2B),"C57BL/6 mice; bilateral ACL injury, subcutaneous injection, versus not treated or saline-treated animals",much lower OARSI score
same,"cartilage on femur and tibia (histology, FIG. 2A)","C57BL/6 mice; bilateral ACL injury, versus saline-injected mouse (cartilage severely eroded and disrupted)",still a layer of cartilage almost all of the femur and tibial surface
same,CGRP^+ pain nerves / CGRP level in injured knee,CGRP^+ pain nerves; [1],decreased CGRP^+ pain nerves; also recorded: lower levels of CGRP present
same,nerve innervation in the knee,CGRP^+ pain nerves; [1],decreased nerve innervation in the knee
same,pain nerves in the meniscus of the injured joints,"CGRP^+ pain nerves; bilateral ACL injury, versus no treatment or saline",reduced the increase of pain nerves in the meniscus
same,"gait (hind paw stride length, hind paw average speed, hind paw swing speed, step cycle; FIG. 3)",mice,the same or almost the same as that of mice that had not had an ACL injured
same,average humeral head cartilage thickness,"C57Bl/6 male mice; RC ligation, subcutaneous twice weekly, 14 weeks post-operatively, GsMTx4 versus saline or contralateral control joint",no difference in average humeral head cartilage thickness
same,cartilage degeneration of shoulder,"C57Bl/6 male mice; RCT, treated post-injury, versus animals not treated post-injury with GsMTx4",reduced cartilage degeneration
